Data from patent US7696236B2, “Method of providing pirfenidone therapy to a patient” (InterMune, Inc., priority 2006, dated 2010).

Experiments:
[1] = system: fibrogenic cytokines such as TGF-β1, bFGF, PDGF, and EGF; conditions: Zhang S et al. 1998; cited from earlier work
[2] = oral tablet and capsule forms, clinical trials; effects appear to be dose related; cited from earlier work
TNF-α = conditions: from macrophages and other cells; Cain et al. 1998; cited from earlier work
[3] = adverse events associated with pirfenidone therapy in patients; type: in vivo, patient; conditions: dosing escalation scheme described herein (up to 2,403 mg per day, full dosage about Day 15)
Protocol: As an investigational drug, pirfenidone is provided in tablet and capsule forms principally for oral administration. Various formulations have been tested and adopted in clinical trials and other research and experiments. […] Many of these effects can interfere with everyday activities and quality of life. These effects appear to be dose related. The adverse reactions associated with pirfenidone therapy are exacerbated when pirfenidone is administered at these higher doses.
The present invention overcomes the unmet clinical need by providing an improved, optimized dose escalation scheme for the administration of pirfenidone. The dose escalation scheme of the present invention provides pirfenidone in an amount such that the full maximum dosage is not reached for at least one week. In a preferred embodiment, the full maximum dosage of pirfenidone is not reached until about Day 15 of treatment. The method of the present invention allows for a maximum dosage of 2,403 mg of pirfenidone per day to be administered to a patient and also reduces the incidence of adverse events associated with the administration of pirfenidone by more accurately matching dose escalation with tolerance development in the patient. […]

For `Cc1ccc(=O)n(-c2ccccc2)c1` [pirfenidone, 5-methyl-1-phenyl-2-(1H)-pyridone], the “excessive biosynthesis or release of various fibrogenic cytokines” value [1] is listed as “inhibits”, the “most common adverse reactions or events associated with pirfenidone therapy” value [2] is listed as “gastrointestinal upset, nausea, fatigue, somnolence, dizziness, headache, and photosensitivity rash” and the “synthesis and release of excessive amounts of TNF-α” value (TNF-α) is listed as “blocks”. For the same compound, the “adverse events, such as somnolence and photosensitivity reaction, as the dosage escalates” value [3] was “decrease”.
